The values below come from the Deep4Chem optical property database.

Structures are written as SMILES.

The data set can be described thus: solvent given as SMILES.

For `CCCCN1C(=O)c2cccc3c(N(C)C)ccc(c23)C1=O`, the absorption maximum is 416 nm (in CC#N), 428 nm (in CS(C)=O) and 403 nm (in Cc1ccccc1).
Turning to `O=C1CC(c2ccc(Cl)cc2)c2c(c3ccccc3c3nc4ccccc4nc23)O1` (centres undefined), the absorption maximum (in ClC(Cl)Cl) stood at 410 nm.
As to `O=C1c2ccc(-c3ccc(N(c4ccccc4)c4ccccc4)cc3)cc2C(=O)c2ccc(-c3ccc(N(c4ccccc4)c4ccccc4)cc3)cc21`, where the note is “in Cc1ccccc1”, the absorption maximum is 454 nm.
For the setting “in CO”, `CC1(C)C(/C=C/C2=C(Oc3ccc(CCN=C=S)cc3F)C(=C/C=C3/N(CCCS(=O)(=O)[O-])c4ccccc4C3(C)C)/CCC2)=[N+](CCCS(=O)(=O)[O-])c2ccccc21` came in with an absorption maximum of 768 nm.
Turning to `FC(F)(F)c1ccc(C#Cc2ncc(-c3ccccc3)o2)cc1`, the absorption maximum (in ClCCl) is on record as 320 nm.
As for `Cc1ccc(C2=C3C=CC(Nc4ccccc4)=[N+]3[B-](F)(F)n3c(Nc4ccccc4)ccc32)cc1`, the absorption maximum (in CO) turned out to be 588 nm.
In turn, `COc1ccc(-n2nc(C#N)c(N3CCN(c4ccccn4)CC3)n2)cc1` showed an absorption maximum (in CC#N) of 321 nm.
As to `CCCCNC(=O)c1nc2c(N(C)C)nc(N(C)C)nc2n1Cc1ccccc1`, the absorption maximum is, setting by setting: (in C1COCCO1) 332 nm; (in CC#N) 333 nm; (in CO) 335 nm; (in ClCCl) 338 nm.
Consider `C/C=C/c1cccc(OC)c1`, for which the absorption maximum (in CCCCCC) is listed as 293 nm.
The compound `Cc1cc(-c2ccc(N(c3ccccc3)c3ccccc3)cc2)c2nsnc2c1-c1ccc(N(c2ccccc2)c2ccccc2)cc1` showed an absorption maximum (in ClCCl) of 432 nm.
The compound `Cc1cccc(C2=Cc3c4ccccc4cc[n+]3[B-](F)(F)O2)c1` returned an absorption maximum (in ClC(Cl)Cl) of 401.5 nm.
`CCOC(=O)/N=c1/oc2ccc(OC)cc2cc1C#N` had an absorption maximum (in ClCCl) of 388 nm.
As to `CC(C)[Si](C#Cc1c2nc3ccccc3nc2c(C#C[Si](C(C)C)(C(C)C)C(C)C)c2nc3c4ccccc4c(=O)c4ccccc4c3nc12)(C(C)C)C(C)C`, the absorption maximum (in ClCCl) stood at 603 nm.
For `Cc1nc2cc(/C=C/c3ccc(N(C)C)cc3)ccc2nc1-c1ccccc1`, the absorption maximum (in C1COCCO1) came out at 415 nm, the absorption maximum (in CC#N) came out at 407 nm and the absorption maximum (in ClCCl) came out at 407 nm.
Compound `CN(C)c1ccc2nc(-c3ccc(C(=O)OC(C)(C)C)cc3)sc2c1` yielded an absorption maximum (in C1CCCCC1) of 384 nm; an absorption maximum (in CC#N) of 390 nm; an absorption maximum (in CC(C)O) of 392 nm; an absorption maximum (in CO) of 393 nm; an absorption maximum (in CS(C)=O) of 403 nm; an absorption maximum (in ClC(Cl)Cl) of 392 nm. Under “in c1ccccc1”, this compound yielded an absorption maximum of 392 nm.
`CCOCCC1=Cc2nc1ccc1[nH]c(cc1CCOCC)c1nc(ccc3[nH]c2cc3CCOCC)C(CCOCC)=C1` gave an absorption maximum (in Cc1ccccc1) of 638 nm.
Turning to `CCOC(=O)c1ccc(C2=C(c3ccccc3)c3oc4ccccc4[n+]3[B-](F)(F)O2)cc1`, the absorption maximum (in C1CCOC1) is on record as 350 nm.
For `COc1ccc(-c2csc(/C(C#N)=N\Nc3ccc(C#N)cc3)n2)cc1`, the absorption maximum (in CC#N) is recorded as 401 nm; the absorption maximum (in CCO) turned out to be 403 nm; the absorption maximum (in CN(C)C=O) is on record as 481 nm; the absorption maximum (in Cc1ccccc1) was 405 nm; the absorption maximum (in ClCCl) amounted to 404 nm.
In the case of `CN(C)c1ccc(-c2c(/C=C3/C=Cc4ccccc4N3Cc3ccccc3)c(=O)c2=O)cc1`, the absorption maximum runs as follows: (in C1CCCCC1) 358 nm; (in Cc1ccccc1) 364 nm; (in ClCCl) 511 nm.
With `COC(=O)c1c2ccccc2nc2ccccc12`, the absorption maximum (in C1CCOC1) was 361 nm; the absorption maximum (in C1COCCO1) turned out to be 361 nm; the absorption maximum (in CC#N) is listed as 360 nm; the absorption maximum (in CCCCCO) was found to be 361 nm; the absorption maximum (in CCCCO) amounted to 360 nm; the absorption maximum (in CCCO) is reported as 361 nm. The compound also had an absorption maximum (in CCO) of 360 nm; an absorption maximum (in CO) of 360 nm; an absorption maximum (in COCCOC) of 361 nm; an absorption maximum (in ClC(Cl)Cl) of 361 nm; an absorption maximum (in ClCCl) of 361 nm; an absorption maximum (in OCCO) of 361 nm.
The compound `FC(F)(F)c1ccc(/C2=C3N=C(C(c4ccccc4)=C/3c3ccccc3)/C(c3ccc(C(F)(F)F)cc3)=c3\[nH]/c(c(-c4ccccc4)c3-c3ccccc3)=C(/c3ccc(C(F)(F)F)cc3)C3=N/C(=C(/c4ccc(C(F)(F)F)cc4)c4[nH]c2c(-c2ccccc2)c4-c2ccccc2)C(c2ccccc2)=C3c2ccccc2)cc1` came in with an absorption maximum (in ClCCl) of 708 nm.
As for `O=Cc1cc(O)ccc1O`, the absorption maximum is listed as 366 nm (in C1CCOC1); 363 nm (in C1COCCO1); 362 nm (in CC#N); 364 nm (in CC(C)=O); 367 nm (in CCCO); 367 nm (in CCO). Besides, the absorption maximum is 365 nm (in CN(C)C=O); 369 nm (in CN(C)P(=O)(N(C)C)N(C)C); 358 nm (in CNC=O); 364 nm (in CO); 366 nm (in CS(C)=O); 362 nm (in ClC(Cl)Cl). The compound also had an absorption maximum (in NC=O) of 363 nm.
Regarding `CCn1c2ccc(-c3ccc(-c4cccs4)s3)cc2c2cc(-c3ccc(-c4cccs4)s3)ccc21`, the absorption maximum (in ClCCl) is on record as 380 nm.
For the compound `COC(=O)C(NC(=O)OC(C)(C)C)c1ccc2oc(-c3ccc(O)cc3O)nc2c1` (centres undefined), the absorption maximum (in CC1CCCCC1) is recorded as 336 nm, the absorption maximum (in CC#N) was 320 nm and the absorption maximum (in CO) was found to be 321 nm.
With `C(=C\c1cc(-c2ccccc2)c(/C=C/c2ccc(N(c3ccccc3)c3ccccc3)cc2)cc1-c1ccccc1)/c1ccc(N(c2ccccc2)c2ccccc2)cc1`, the absorption maximum (in ClCCl) amounted to 415 nm.
The compound `CCN(CC)c1ccc2cc3ccc(=[N+](CC)CC)cc-3oc2c1` came in with an absorption maximum (in CC#N) of 525 nm, an absorption maximum (in CCO) of 526 nm, an absorption maximum (in CN(C)C=O) of 535 nm and an absorption maximum (in O) of 550 nm.
In the case of `CCCCOc1c(C#N)cc2cc(C#N)c(OCCCC)c3c4c(OCCCC)c(C#N)cc5cc(C#N)c(OCCCC)c(c1c23)c54`, the absorption maximum (in ClCCl) was 454 nm.
Take `O=C1O/C(=C2/C(=O)Oc3ccccc32)C(O)=C1c1ccccc1`: the absorption maximum (in ClC(Cl)Cl) is reported as 388 nm.
Compound `c1ccc2c(c1)-c1ccccc1C21c2ccccc2-c2sc3c(c21)C1(c2ccccc2-c2ccccc21)c1ccccc1-3` gave an absorption maximum (in C1CCOC1) of 373 nm.
`CN1C(=CC2=C([O-])C(=CC3=[N+](C)c4ccccc4C3(C)C)C2=C2C(=O)NC(=O)NC2=O)C(C)(C)c2ccccc21` displayed an absorption maximum (in ClC(Cl)Cl) of 644 nm.
On to `CCCCCCc1cc2/c(=C(\C#N)C(=O)OC)s/c(=c3/s/c(=C(/C#N)C(=O)OC)c4cc(CCCCCC)sc34)c2s1`, for which the absorption maximum (in Cc1ccccc1) was 580 nm.
In turn, `Oc1ccccc1/C=N/CC/N=C/c1ccccc1O` registered an absorption maximum (in CC#N) of 396 nm.
Take `C[Si](C)(C)c1sc([Si](C)(C)C)c2c1sc1c3sc4c(sc5c4sc4c([Si](C)(C)C)sc([Si](C)(C)C)c45)c3sc12`: for the setting “in ClC(Cl)Cl”, the absorption maximum came out at 405 nm.
The compound `CNc1cc2nc3cc(Br)c(Br)cc3nc2cc1NC` returned an absorption maximum (in CCO) of 443 nm.
Under “in CC#N”, `O=C(O)c1ccc(-c2nc(-c3ccccc3)c3ccccn23)cc1` showed an absorption maximum of 372 nm.
For `CCC12C(=C3C(=C4c5ccc(-c6ccc(C)s6)cc5S(=O)(=O)C41CC)C(F)(F)C(F)(F)C3(F)F)c1ccc(-c3ccc(C)s3)cc1S2(=O)=O` (centres undefined), the absorption maximum is 506 nm (in C1COCCO1); 507 nm (in CC#N); 489 nm (in CCCCCC); 508 nm (in CCO); 525.37 nm (in CS(C)=O); 497.35 nm (in ClC(Cl)(Cl)Cl). This compound showed an absorption maximum (in ClCCl) of 507.67 nm.
In the case of `CC(C)(C)c1ccc(C2=c3sc4ccccc4c3=[N+]3C2=Nc2c(-c4ccc(C(C)(C)C)cc4)c4sc5ccccc5c4n2[B-]3(F)F)cc1`, the absorption maximum was 709 nm (in C1CCOC1), 715 nm (in Cc1ccccc1) and 711 nm (in ClC(Cl)Cl).
`COc1ccc(-c2c3ccccc3c(-c3ccc(OC)cc3)c3ccccc23)cc1` showed an absorption maximum (in ClCCl) of 376 nm.
Take `COc1ccc2n1[B-](F)(F)[N+]1=C(c3ccccc3)C=CC1=C2c1ccc(C)cc1`: the absorption maximum reads like this: (in C1CCCCC1) 532 nm; (in C1CCOC1) 528 nm; (in C1COCCO1) 529 nm; (in CCOC(C)=O) 526 nm; (in CO) 523 nm; (in Cc1ccccc1) 534 nm. For the setting “in ClC(Cl)Cl”, the absorption maximum is given as 530 nm.
`Cc1cc2ccccc2c2c1c1ccccc1n2-c1ncccn1`: the absorption maximum (in ClCCl) came to 303 nm.
`N#CC(C#N)=C(c1ccc(N(c2ccccc2)c2ccccc2)cc1)c1ccc(N(c2ccccc2)c2ccccc2)cc1`: the absorption maximum is, setting by setting: (in C1CCCCC1) 367.21 nm; (in CC(C)=O) 370.45 nm; (in CN(C)C=O) 374.03 nm; (in Cc1ccccc1) 374.03 nm; (in ClC(Cl)Cl) 381.49 nm.
`CC(C)(C)C1Nc2ccccc2C(=O)N1Cc1ccccc1` (centres undefined): the absorption maximum by setting is: (in CC#N) 344 nm; (in CCCCCCCCCCCCCCCC) 333 nm; (in CO) 353 nm; (in ClC(Cl)Cl) 341 nm; (in c1ccccc1) 339 nm.
Compound `Cc1ccc(C2CC(=O)Oc3c2c2nc4ccc(C)cc4nc2c2ccccc32)cc1` (centres undefined) returned an absorption maximum (in ClC(Cl)Cl) of 411 nm.
For `N#CC(C#N)=Cc1ccc(-c2ccc(N(c3ccccc3)c3ccccc3)cc2)s1`, for the setting “in ClC(Cl)Cl”, the absorption maximum is 506 nm.
In turn, `CCCCC(CC)Cn1c2cc(C#N)ccc2c2ccc(C#Cc3ccc4ccc5c(C#Cc6ccc7c8ccc(C#N)cc8n(CC(CC)CCCC)c7c6)cc(C#Cc6ccc7c8ccc(C#N)cc8n(CC(CC)CCCC)c7c6)c6ccc3c4c56)cc21` (centres undefined) came in with an absorption maximum (in ClCCl) of 447 nm.
